This note sets out measurements from ChEMBL document CHEMBL4219059, “Synthesis and biological evaluation of cyclopeptide GG-8-6 and its analogues as anti-hepatocellular carcinoma agents” (Bioorg Med Chem, 2018).

The structures appear in SMILES notation. The source made the active and inactive calls. The calls are words filed in the database; no cut-off is given here. Peptide text beside a SMILES is read from it.

The subject of one test is HepG2. The test is described as follows: Antiproliferative activity against human HepG2 cells after 24 hrs by MTT assay. The test is classed as functional, cell-based. The note with it: HepG2, 24 h.
Test [1] has as its system SMMC-7721. The test is described as follows: Antiproliferative activity against human SMMC7721 cells after 24 hrs by MTT assay. The class given is functional, cell-based. The following applies: SMMC-7721, 24 h. In general terms: Tetrazolium dyes change colour on reduction, which living cells bring about.
Test [2] deals with SMMC-7721. The test is described as follows: Induction of apoptosis in human SMMC7721 cells assessed as late apoptotic cells at 0.2 uM after 24 hrs by Annexin V-FITC/propidium iodide staining based flow cytometry (reference value: 0.7%). The test is classed as functional. For orientation: In flow cytometry, cells or beads pass a laser one at a time.
The subject of test [3] is SMMC-7721. Put plainly: Induction of apoptosis in human SMMC7721 cells assessed as chromatin condensation at 0.2 uM after 24 hrs by DAPI staining based laser confocal microscopy. The test is classed as functional, cell-based.
In test [4] the test system is SMMC-7721. The test is described as follows: Induction of apoptosis in human SMMC7721 cells assessed as early apoptotic cells at 0.2 uM after 24 hrs by Annexin V-FITC/propidium iodide staining based flow cytometry (reference value: 2%). The class given is functional.

For orientation: IC50 means the concentration that inhibits the measured activity by half. Higher therefore signals weaker potency in that assay. As to `CC[C@H](C)[C@@H]1NC(=O)[C@@H]2CCCN2C(=O)[C@H](CC(C)C)NC(=O)[C@H](C(C)C)NC(=O)[C@H](CC(C)C)NC(=O)[C@H](C(C)C)NC(=O)[C@H](C)NC(=O)[C@H](CC(C)C)NC(=O)[C@H](CC(C)C)NC1=O` (cyclo(AVLVLPILL)), the IC50 in the test on HepG2 was 31.8 µM; with SMMC-7721 [1] it was 56.1 µM.

For `CC[C@H](C)[C@@H]1NC(=O)[C@@H]2CCCN2C(=O)[C@H](CC(C)C)NC(=O)[C@H](C)NC(=O)[C@H](CC(C)C)NC(=O)[C@H](C(C)C)NC(=O)[C@H](CC(C)C)NC(=O)[C@H](CC(C)C)NC(=O)[C@H](CC(C)C)NC1=O` (cyclo(ALPILLLVL)), the concentration for half-maximal inhibition (IC50) in the test with HepG2 and in the test on SMMC-7721 [1] was 29.9 µM throughout.

Take `CC[C@H](C)[C@@H]1NC(=O)[C@@H]2CCCN2C(=O)[C@H](C)NC(=O)[C@H](C(C)C)NC(=O)[C@H](CC(C)C)NC(=O)[C@H](C(C)C)NC(=O)[C@H](CC(C)C)NC(=O)[C@H](CC(C)C)NC(=O)[C@H](CC(C)C)NC1=O` (cyclo(APILLLVLV)): the IC50 turned out to be 39.4 µM with HepG2 and 48.5 µM with SMMC-7721 [1].

Consider `CC[C@H](C)[C@@H]1NC(=O)[C@@H]2CCCN2C(=O)[C@H](CC(C)C)NC(=O)[C@H](C(C)C)NC(=O)[C@H](CC(C)C)NC(=O)[C@H](C(C)C)NC(=O)[C@H](CC(C)C)NC(=O)[C@H](C)NC(=O)[C@H](CC(C)C)NC1=O` (cyclo(ALVLVLPIL)), for which the values for the IC50 with HepG2 and in the test on SMMC-7721 [1] were > 100 µM and 42.8 µM, respectively.

In the case of `CC(=O)O[C@H]1C(=O)[C@@]2(C)[C@H]([C@H](OC(=O)c3ccccc3)[C@]3(O)C[C@H](OC(=O)[C@H](O)[C@@H](NC(=O)c4ccccc4)c4ccccc4)C(C)=C1C3(C)C)[C@]1(OC(C)=O)CO[C@@H]1C[C@@H]2O` [PACLITAXEL], the values for the Activity in the test on SMMC-7721 [2] and in the test with SMMC-7721 [4] were 3.4% and 54.7 - 56.7%, respectively. For the same compound, the result in the test with SMMC-7721 [3] was Active.

Turning to `CC[C@H](C)[C@@H]1NC(=O)[C@@H]2CCCN2C(=O)[C@H](CC(C)C)NC(=O)[C@H](C(C)C)NC(=O)[C@H](CC(C)C)NC(=O)[C@H](C(C)C)NC(=O)[C@H](CC(C)C)NC(=O)[C@H](CC(C)C)NC1=O` (cyclo(ILLVLVLP)), the half-inhibitory concentration (IC50) is 51.7 µM in the test on HepG2 and 73.9 µM in the test with SMMC-7721 [1].

For the compound `CC[C@H](C)[C@@H]1NC(=O)[C@@H]2CCCN2C(=O)[C@H](C(C)C)NC(=O)[C@H](CC(C)C)NC(=O)[C@H](C(C)C)NC1=O` (cyclo(IVLVP)), the half-inhibitory concentration (IC50) in the test on HepG2 and with SMMC-7721 [1] was > 100 µM each time.
